Data reported in paper PMC9923724, “Half sandwich-type osmium, ruthenium, iridium and rhodium complexes with bidentate glycosyl heterocyclic ligands induce cytostasis in platinum-resistant ovarian cancer cells and bacteriostasis in Gram-positive multiresistant bacteria” (Frontiers in Chemistry, 2023).
Like-named read-outs stand apart in the source and are kept apart here. Each block holds one compound with its values, some of them ahead of it.

Tests used:
[1] = tested on: A2780 ovarian cancer cells; conditions: ref Kacsir et al., cited from earlier work
[2] = tested on: multiresistant bacteria (Staphylococcus aureus, Enterococcus species); parameters: method as in Balázs et al., 2022; conditions: ref Balázs et al., 2022; cited from earlier work
[3] = tested on: Enterococcus faecalis (ATCC29212); assay: Broth microdilution MIC, Enterococcus faecalis reference strain; format: cell-based
Experimental: (§1) The MIC values of the complexes were determined against the reference strains of S. aureus (ATCC29213) and E. faecalis. (ATCC29212) and against clinical VRE and MRSA isolates by microdilution assays (repeated at least twice in duplicates) as described in Materials and Methods. The numbers indicate how many isolates were susceptible to the compound out of those tested; i.e., 1/6 stands for 1 isolate was susceptible out of 6 tested. […] Cells were harvested and lysed. Cellular proteins was separated on a 10% SDS-PAGE gel and were blotted. Blots were probed with 4HNE antibody (top blot), the lower blot was stained with amido black. Arrows point at band of interest. Experiments were repeated three times and a representative blot is shown. On the blots brightness and contrast were adjusted. […] Each was matched to a substance and strain by its position over the x-axis categories. / Ir-7: ND and 0/3 (left plot) and ND and 0/6 (right plot) were matched to E. faecalis/VRE and S. aureus/MRSA by position only.
(§2) We used the reference strains of Staphylococcus aureus (ATCC29213), and Enterococcus faecalis (ATCC29212) that were purchased from ATCC (Manassas, VA, United States).
(§3) Microdilution experiments were performed according to the standards of EUCAST ([EUCAST, 2021]). […] The inoculated plates were incubated for 24 h at 37°C then were assessed visually. […] All experiments were performed at least twice in duplicates.

[4] = tested on: A2780 ovarian cancer cells; assay: MTT reduction assay (rapid toxicity, 4 h) on A2780 cells; format: cell-based; conditions: 4 h treatment
Experimental: (§4) First, we assessed a set of osmium complexes (similar to Ia [[Kacsir et al., 2022]) in Figure 1] and their sugar-derived ligands, in which the benzoyl protective groups on the carbohydrate moiety were replaced by aliphatic acyl groups of different chain length (straight chain C3-C7–CO). Osmium was selected as a central ion, since osmium complexes had the best biological activity in our previous studies ([Balázs et al., 2022]; [Kacsir et al., 2022]). These compounds were tested on A2780 ovarian cancer cells for toxicity and cytostasis. The therapy of ovarian cancer is centered around platinum compounds ([Brown et al., 2019]; [Sipos et al., 2021]), therefore, it was logical to use a cellular model of ovarian cancer for the initial testing of the compounds. Toxicity was assessed using the MTT assay that measures the activity of mitochondrial complex I. We chose 4 h long treatment as in an MTT assay this time point is suitable to detect rapid, direct toxicity. Cytostasis was assessed after 48 h of treatment using the SRB assay that assesses protein content that corresponds to cell count. The characteristics of the compounds are detailed in Table 2.
(§5) 3 × 10^3 A2780 cells, were plated to 96 well plates. Cells were treated with the compounds in the concentrations indicated for either 4 h for an MTT assay or for 48 h for an SRB assay. Data is represented as average ± SD, from three biological replicates; individual assays were performed in duplicates. Values were normalized for vehicle treated cells, absorbance for vehicle treated cells equals to 1. […] Except for the Os-6 complex, Two-way ANOVA test was performed and all values were compared with each other (Tukey’s post hoc test). […] Non-linear regression was performed on the data.
(§6) 3 × 10^3 A2780 cells, 2 × 10^3 ID8 cells and 4 × 10^3 primary fibroblasts were plated to 96 well plates. Cells were treated with the compounds in the concentrations indicated for either 4 h for an MTT assay or for 48 h for an SRB assay. Data is represented as average ± SD, from three biological replicates; individual assays were performed in duplicates. Values were normalized for vehicle treated cells, absorbance for vehicle treated cells equals to 1. Statistical significance was assessed using two-way ANOVA test comparing the free ligand and each complex as a complex-ligand pair. Before the test normality was assessed using the D’Agostino-Pearson test. The ID8 SRB Ir-7+L-7 dataset had lognormal distribution. […] All other datasets had normal distribution. For better visibility the p values are presented in an excel sheet at https://figshare.com/s/2c942a812caea8869a67. Non-linear regression was performed on the A2780 SRB and the ID8 SRB datasets.
(§7) MTT reduction assay measures the activity of mitochondrial complex I and can be used to detect toxicity ([Virág et al., 1998]; [Henslee et al., 2016]). The assay was performed similar to ([Bakondi et al., 2003]). Briefly, cells were plated in 96 well plates the day before the assay. Cells were treated with the compounds for 4 h, then MTT was added in 0.5 mg/ml final concentration and cells were incubated at 37°C in a cell incubator. Culture media was removed and the reduced MTT dye was dissolved in dimethyl-sulfoxide (DMSO) and plates were measured in a plate photometer (Thermo Scientific Multiscan GO spectrophotometer, Waltham, MA, United States) at 540 nm. On each plate wells were designed to contain untreated/vehicle-treated cells. In calculations the readings for these wells was considered as 1 and all readings were expressed relative to these values.

[5] = tested on: A2780 ovarian cancer cells; assay: SRB assay (cytostasis, 48 h) on A2780 cells; format: cell-based; conditions: 48 h treatment
Experimental: as §4, §5, §6
(§8) The assay was performed similar to ([Kovács et al., 2019]). Cells were seeded in 96 well plates the day before the assay. Cells were treated with the compounds for 48 h. Cells were fixed with 10% trichloroacetic acid (TCA). Fixed cells were washed in distilled water 3 times followed by staining with SRB (0.4 m/V% dissolved in 1% acetic acid) for 10 min. Stained cells were washed in 1% acetic acid 5 times; acetic acid was removed and cells were left to dry. Protein-bound SRB was released by adding 100 µl 10 mM Tris base. Plates were measured in a plate photometer (Thermo Scientific Multiscan GO spectrophotometer, Waltham, MA, United States) at 540 nm. On each plate wells were designed to contain vehicle-treated cells. In calculations the readings for these wells was considered as 1 and all readings were expressed relative to these values.
Statistical analysis was performed using 8.0.1 version of Graphpad Prism. Values were tested for normal distribution using the D’Agostino and Pearson normality test. When necessary, values were log normalized or were normalized using the Box-Cox normalization method ([Box and Cox, 1964]) as indicated in the figure captions. […]

[6] = tested on: vancomycin-resistant Enterococcus (VRE) clinical isolates; assay: Broth microdilution MIC, clinical VRE isolates; format: cell-based, E. faecium
Experimental: as §1
(§9) We used a set of clinical isloates of S. aureus and E. faecium that were collected at the Medical Center of the University of Debrecen (Hungary) between 01. 01. 2018.—31. 12. 2020. The clinical isolates were identified using a Microflex MALDI-TOF mass spectrometer (Bruker, Billerica, MA, United States). Antibiotic susceptibility of the isolates was tested following the European Committee on Antimicrobial Susceptibility Testing ([EUCAST, 2021]) guidelines valid at the time of collection.
as §3

[7] = Determination of the distribution coefficients (logD); format: physicochemical; conditions: distribution coefficient
[8] = tested on: methicillin-resistant Staphylococcus aureus (MRSA) clinical isolates; assay: Broth microdilution MIC, clinical MRSA isolates; format: cell-based
Experimental: as §1, §9, §3

[9] = tested on: Staphylococcus aureus (ATCC29213); assay: Broth microdilution MIC, Staphylococcus aureus reference strain; format: cell-based
Experimental: as §1, §2, §3

[10] = tested on: primary dermal fibroblasts; assay: MTT reduction assay (4 h) on primary fibroblasts; format: cell-based; conditions: primary human dermal fibroblasts
Experimental: as §6
Human primary dermal fibroblasts were cultured in low glucose DMEM (1 g/L glucose) medium supplemented with 20% fetal calf serum, 2 mM glutamine, 1% penicillin-streptomycin.
as §7

[11] = tested on: cisplatin resistant A2780 cells; assay: SRB assay (48 h) on cisplatin-resistant A2780 cells; format: cell-based
Experimental: 6 × 10^3 cisplatin-resistant A2780 cells were plated to 96 well plates. Cells were treated with the compounds in the concentrations indicated for either 4 h for an MTT assay or for 48 h for an SRB assay. Data is represented as average ± SD, from three biological replicates; individual assays were performed in duplicates. Values were normalized for vehicle treated cells, absorbance for vehicle treated cells equals to 1. Each compound was assessed individually. Normality was assessed using the Shapiro-Wilk test. […] Statistical significance was assessed using One-way ANOVA test comparing all points to the smallest concentration. For better visibility the p values are presented in an excel sheet at https://figshare.com/s/2c942a812caea8869a67. Non-linear regression was performed on the results of the SRB assay datasets.
Cisplatin resistant cells underwent selection (1 µM cisplatin) once a week for 3 days before plating for any assay.
as §8
Statistical analysis was performed using 8.0.1 version of Graphpad Prism. Values were tested for normal distribution using the D’Agostino and Pearson normality test. When necessary, values were log normalized or were normalized using the Box-Cox normalization method ([Box and Cox, 1964]) as indicated in the figure captions.

[12] = Solubility / precipitation observed during testing; format: physicochemical; conditions: free ligand in cell assays
Experimental: In concentrations exceeding 33.3 µM the complexes frequently precipitated. All of the complexes and the free ligand exerted little rapid cytotoxicity in MTT assays, not more than 35% in any of the cell lines assessed in the peak concentration, except for the Os-7 complex with 75% toxicity on ID8 cells (Figure 5; Table 2). […] The complexes were more efficient in ID8 cells as compared to A2780 cells (Figure 5; Table 2). […] On primary non-transformed fibroblasts, used as controls, the complexes exerted negligible toxicity and low cytostatic activity (Figure 5; Table 2). The cytostatic activity was not more than 50% in the peak concentration.

[13] = cisplatin resistant A2780 cells, SRB, 48 h

Structure (SMILES): Cc1ccc(C(C)C)cc1.F[P-](F)(F)(F)(F)F.O=C(OCC1OC(n2cc(-c3ccccn3)nn2)C(OC(=O)c2ccccc2)C(OC(=O)c2ccccc2)C1OC(=O)c1ccccc1)c1ccccc1.[Cl][Os+] (mixture of isomers) [Ia]
IC50 ([1]; A2780 cells, 2022, read-out: IC50 against A2780 ovarian cancer): 0.73 µM
MIC on multiresistant bacteria [2]: 0.3 to 5.0 µM

Structure (SMILES): CCCCCCCC(=O)OCC1OC(n2cc(-c3ccccn3)nn2)C(OC(=O)CCCCCCC)C(OC(=O)CCCCCCC)C1OC(=O)CCCCCCC.Cc1ccc(C(C)C)cc1.F[P-](F)(F)(F)(F)F.[Cl][Os+] (mixture of isomers) [Os-6]
MIC, Reference E. faecalis ([3]; Enterococcus faecalis ATCC29212, 24 h): 40< µM
MIC (μM) (E. faecalis), Figure 11 ([3]; reference strain ATCC29212, printed in the picture): ND (ND—not detected, MIC>40 µM)
A2780 MTT Max. (maximal inhibition) [4]: 76.9%
IC50 [4]: 16.5 µM
A2780 SRB Max. (maximal inhibition) [5]: 88.4%
MIC against clinical VRE isolates (as a group) ([6]; 3 clinical VRE isolates): > 40 µM
VRE isolates susceptible out of those tested ([6]; 3 isolates tested, susceptible = MIC up to 40 µM): 0/3
MIC, VRE 25 051 ([6]; clinical isolate 25 051, nephrostoma, 2018): 40< µM
MIC, VRE 25 498 ([6]; clinical isolate 25 498, rectal swab, 2018): 40< µM
MIC, VRE 27 085 ([6]; clinical isolate 27 085, wound, 2018): 40< µM
LogD [7]: 2.8
MIC against clinical MRSA isolates (as a group) ([8]; 6 clinical MRSA isolates): > 40 µM
MRSA isolates susceptible out of those tested ([8]; 6 isolates tested, susceptible = MIC up to 40 µM): 0/6
MIC, MRSA 20 426 ([8]; clinical isolate 20 426, blood, 2020): 40< µM
MIC, MRSA 24 035 ([8]; clinical isolate 24 035, wound, 2018): 40< µM
MIC, MRSA 24 268 ([8]; clinical isolate 24 268, throat, 2018): 40< µM
MIC, MRSA 24 272 ([8]; clinical isolate 24 272, throat, 2018): 40< µM
MIC, MRSA 24 328 ([8]; clinical isolate 24 328, throat, 2018): 40< µM
MIC, MRSA 24 408 ([8]; clinical isolate 24 408, bronchial, 2018): 40< µM
MIC, Reference S. aureus ([9]; Staphylococcus aureus ATCC29213, 24 h): 40< µM
MIC (μM) (S. aureus), Figure 11 ([9]; reference strain ATCC29213): ND (ND—not detected, MIC>40 µM)

Structure (SMILES): Cc1c(C)c(C)[c-](C)c1C.F[P-](F)(F)(F)(F)F.O=C(OCC1OC(n2cc(-c3ccc4ccccc4n3)nn2)C(OC(=O)c2ccccc2)C(OC(=O)c2ccccc2)C1OC(=O)c1ccccc1)c1ccccc1.[Cl][Rh+2] (mixture of isomers) [Rh-7]
Fibroblast MTT Max. (maximal inhibition) [10]: 15.09%
A2780 MTT Max. (maximal inhibition) [4]: 18.3%
A2780 SRB Max. (maximal inhibition) [5]: 47.9%

Structure (SMILES): N.N.[Cl][Pt][Cl] [Cisplatin, cisplatin, reference compound]
fold change of IC50, cisplatin resistant vs cisplatin sensitive A2780 ([11]; SRB assays, resistant / sensitive A2780): 13.6 fold
IC50 [11, 13]: 16.5 µM
cisplatin resistant A2780 SRB Max. (maximal inhibition) [11, 13]: >90%
A2780 SRB Max. (maximal inhibition), cisplatin ([1]; A2780 cells, SRB, 2021): >90%
IC50 ([1]; cisplatin-sensitive A2780 cells, SRB, 2021, read-out: A2780 SRB IC50, cisplatin): 1.21 µM

solubility (suitability for testing) [12]: insoluble
Structure (SMILES): CCCCCCCC(=O)OC[C@H]1O[C@@H](n2cc(-c3ccccn3)nn2)[C@H](OC(=O)CCCCCCC)[C@@H](OC(=O)CCCCCCC)[C@@H]1OC(=O)CCCCCCC [L-6]
